Source: article PMC13326014 (Advanced Science, 2026)
Where two headings read alike, the source gives them in different places. Peptide text beside a SMILES is read from it.

How the values were obtained:
INS‐1E β‐cells [1] = experiment: ICC of Antp‐QBP1 uptake (anti‐biotin) in INS‐1E β‐cells; assay type: cell-based, rat; conditions: 48 h; for anti‐biotin (Red‐647) fluorescence intensity per cell: uptake by ICC
Experimental: (§1) Cells were seeded in 24‐well plates (Corning, cat. #3526) on 12 mm coverslips pre‐treated with 1 mg/mL poly‐D‐lysine (Merck, cat. #P2636) in borate buffer (pH 8.0) at a density of 200,000 cells/mL. […] Primary antibodies against hIAPP (rabbit anti‐hIAPP, 1:400; Sigma‐Aldrich), biotin (goat anti‐biotin, 1:200; Invitrogen, cat. # 31852), oligomers (A11, 1:400, Invitrogen, cat. # AHB0052) and fibrils (OC, 1:200, Millipore, cat. # AB2286) were applied overnight at 4°C. Fluorophore‐conjugated secondary antibodies (Invitrogen) were added for 1 h at RT in darkness, followed by DAPI nuclear staining for 15 min. Coverslips were mounted with ProLong Gold (Life Technologies) and imaged using either a Leica DMI 6000 fluorescence microscope or a Leica Stellaris 8 stimulated emission depletion (STED) super‐resolution microscope, both equipped with a 40× oil‐immersion objective.
ThT‐stained and ICC samples were imaged using a Leica Stellaris 8 STED super‐resolution confocal microscope (Leica Microsystems, Germany). For ThT imaging, samples in Ibidi μ‐Slide 4 Well ibiTreat coverslips were excited at 488 nm and emission was collected between 509–580 nm. For ICC, fluorophores were excited at 405 nm (DAPI; 420–480 nm, HyD S1), 488 nm (Alexa Fluor 488/FITC; 500–550 nm, HyD S2) and 653 nm (Alexa Fluor 647; 665–750 nm, HyD X3), all acquired sequentially in counting mode to prevent spectral overlap. […] Z‐stacks were collected in optimized mode to generate 3D reconstructions of ThT fluorescence and ICC labeling. Image processing and quantitative analysis were conducted using ImageJ/Fiji (NIH, USA). Specifically, a custom Fiji macro based on the “Find Maxima” algorithm was implemented to detect local intensity peaks across the selected fluorescence channels. Fluorescence intensity per cell (a.u.) was calculated as the total signal per field divided by the number of DAPI‐positive nuclei, and the number of fluorescence spots per cell was defined as total local maxima per field normalized to nuclei count. […]

INS‐1E‐hIAPP cells = experiment: ICC of Antp‐QBP1 uptake in INS‐1E‐hIAPP cells; assay type: cell-based, rat; conditions: Antp‐QBP1 10 µM, 48 h
Experimental: (§2) Rat insulinoma–derived pancreatic β‐cell lines (INS‐1E, INS‐1E‐hIAPP, and INS‐1E‐Ct) were kindly provided by Dr. Anna Novials (IDIBAPS, Barcelona) and characterized as previously described. INS‐1E‐hIAPP cells, which stably express human IAPP, were used as an overexpression model, whereas INS‐1E‐Ct cells transfected with an empty vector served as controls.
as §1

INS‐1E β‐cells [2] = experiment: CellTiter‐Glo ATP viability, exogenous hIAPP oligomers; conditions: 48 h, 16.7 mM glucose
Experimental: Dried hIAPP or rIAPP peptide (0.5 mg) was reconstituted in 10 mM phosphate‐buffered saline (PBS, pH 7.4) with 2% DMSO and 2 mM sodium azide to a final concentration of 300 µM. rIAPP was included as a non‐amyloidogenic control peptide. After centrifugation at 16 000 x g for 50 min at 4°C to remove preformed aggregates, the supernatant (designated as “time zero”)—primarily populated by monomers—was used to initiate amyloidogenesis. Samples were vortexed and incubated at 25°C for 7 days without agitation to allow gradual formation of oligomers and fibrils. […] Aliquots were collected at different time points for biochemical characterization and β‐cells assays. […]
The fusion peptide was N‐terminally biotinylated and the two peptides were separated by two glycine residues as flexible linkers to minimize steric hindrance: Biotin‐[…]. • – Cell culture . […] Viability was assessed using the CellTiter‐Glo Luminescent Cell Viability Assay (Promega, Madison, WI, USA), which quantifies ATP content as an indicator of metabolically active cells, and AlamarBlue (Invitrogen, Thermo Fisher), based on the reduction of resazurin to the fluorescent product resorufin in metabolically active cells, following the manufacturer's instructions. Luminescence (CellTiter‐Glo) and fluorescence (AlamarBlue; Ex 560 nm / Em 590 nm) were recorded using a FLUOstar Omega microplate reader (BMG LABTECH). […]

INS‐1E β‐cells [3] = experiment: AlamarBlue metabolic activity, exogenous hIAPP oligomers
Experimental: Dried hIAPP or rIAPP peptide (0.5 mg) was reconstituted in 10 mM phosphate‐buffered saline (PBS, pH 7.4) with 2% DMSO and 2 mM sodium azide to a final concentration of 300 µM. rIAPP was included as a non‐amyloidogenic control peptide. After centrifugation at 16 000 x g for 50 min at 4°C to remove preformed aggregates, the supernatant (designated as “time zero”)—primarily populated by monomers—was used to initiate amyloidogenesis. Samples were vortexed and incubated at 25°C for 7 days without agitation to allow gradual formation of oligomers and fibrils. […] Aliquots were collected at different time points for biochemical characterization and β‐cells assays. For β‐cell assays involving extracellular hIAPP oligomers, samples were sonicated before use to disrupt early fibrils and enrich for oligomeric species.
The fusion peptide was N‐terminally biotinylated and the two peptides were separated by two glycine residues as flexible linkers to minimize steric hindrance: Biotin‐[…]. • – Cell culture . […] Viability was assessed using the CellTiter‐Glo Luminescent Cell Viability Assay (Promega, Madison, WI, USA), which quantifies ATP content as an indicator of metabolically active cells, and AlamarBlue (Invitrogen, Thermo Fisher), based on the reduction of resazurin to the fluorescent product resorufin in metabolically active cells, following the manufacturer's instructions. Luminescence (CellTiter‐Glo) and fluorescence (AlamarBlue; Ex 560 nm / Em 590 nm) were recorded using a FLUOstar Omega microplate reader (BMG LABTECH). Morphological changes were monitored by phase‐contrast microscopy (Leitz DM IRB, Leica, Germany) equipped with a Peltier temperature controller (Linkam, UK) set to 37°C and a Leica K5 camera. Images from at least three fields per condition were acquired at 10× and 20× magnification and analyzed with Leica LAS AF Lite software.

INS‐1E‐Ct cells = experiment: CellTiter‐Glo ATP viability, empty‐vector control cells; assay type: cell-based, rat; conditions: Antp‐QBP1 5–20 µM, 48 h
Description: as §2
• – hIAPP overexpression conditions .

Rin1056A β‐cells = conditions: cited from earlier work
[4] = test system: hIAPP‐induced cytotoxicity; conditions: cited from earlier work
hIAPP = molecular target: T1, hIAPP (Homo sapiens, UniProt P10997); experiment: 1D 1H NMR loss of hIAPP signal (oligomerization kinetics); assay type: biochemical; conditions: 50 µM hIAPP, three‐fold excess (150 µM) inhibitor, PBS, 37°C
T1 construct: hIAPP (1–37; cat. # RP11278); purchased GenScript (Netherlands) RP11278; host or cells: chemical synthesis
T1 sequence (P10997 34-70): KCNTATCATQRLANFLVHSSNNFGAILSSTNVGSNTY
Experimental: • – hIAPP/QBP1 interaction experiments. 1D ^1H and 2D ^1H‐^1H total correlation spectroscopy (TOCSY) (mixing time = 60 ms) and 2D ^1H‐^1H nuclear Overhauser effect spectroscopy (NOESY) (mixing times = 80 and 250 ms) spectra were recorded at 10°C in 90% H2O/ 10% D2O with 1 mM K2HPO4 and 1 mM sodium acetate buffer (pH 5.5) on 100 µM hIAPP (pre‐monomerized in a small volume of hexadeuterated DMSO) on a Bruker 800 MHz (^1H) spectrometer equipped with a ^1H, ^13C, ^15N cryoprobe, Neo console and z‐gradients. These conditions were chosen because they were previously reported to greatly slow the aggregation of hIAPP, affording time to allow the spectra to be recorded. The solutions also contained 100 µM DSS as the internal chemical shift reference. Spectra were assigned with the aid of the program POKY [62], and the assignments have been deposited in the BMRB database; with access code = 53405. […] The spectra were then analyzed for changes which could reveal atomic‐level details on the interaction between hIAPP and QBP1. • – hIAPP aggregation experiments. A second set of NMR experiments were performed in PBS (90% H2O/ 10% D2O) at 37°C. […] These experiments were performed on a Bruker 600 MHz (^1H) spectrometer equipped with a ^1H, ^13C, ^15N, ^31P cryoprobe, Neo console, and z‐gradients. The final sample pH was verified in situ based on the phosphate ^3 ^1P chemical shift.

[5] = peptide alone, 48 h, Alamar Blue HS

Compound: CC[C@H](C)[C@H](NC(=O)CNC(=O)[C@@H]1CCCN1C(=O)[C@H](Cc1c[nH]c2ccccc12)NC(=O)[C@H](Cc1c[nH]c2ccccc12)NC(=O)[C@H](CCCCN)NC(=O)[C@H](Cc1c[nH]c2ccccc12)NC(=O)CNC(=O)CNC(=O)[C@H](CCCCN)NC(=O)[C@H](CCCCN)NC(=O)[C@H](Cc1c[nH]c2ccccc12)NC(=O)[C@H](CCCCN)NC(=O)[C@H](CCSC)NC(=O)[C@H](CCCNC(=N)N)NC(=O)[C@H](CCCNC(=N)N)NC(=O)[C@H](CC(N)=O)NC(=O)[C@H](CCC(N)=O)NC(=O)[C@H](Cc1ccccc1)NC(=O)[C@H](Cc1c[nH]c2ccccc12)NC(=O)[C@@H](NC(=O)[C@H](CCCCN)NC(=O)[C@@H](NC(=O)[C@H](CCC(N)=O)NC(=O)[C@H](CCCNC(=N)N)NC(=O)CCCC[C@@H]1SC[C@@H]2NC(=O)N[C@@H]21)[C@@H](C)CC)[C@@H](C)CC)C(=O)N[C@@H](Cc1ccccc1)C(=O)O [Antp‐QBP1]
- number of intracellular Red‐647 fluorescent spots per cell vs hIAPP alone (INS‐1E β‐cells [1]; 10 µM Antp‐QBP1 alone or with 10 µM hIAPP): significantly increased
- anti‐biotin (Red‐647) fluorescence intensity per cell (INS‐1E β‐cells [1]; 10 µM Antp‐QBP1 alone): 400–600 a.u./cell
- anti‐biotin (Red‐647) fluorescence intensity per cell (INS‐1E β‐cells [1]; 10 µM Antp‐QBP1 with 10 µM hIAPP oligomers): ~200 a.u./cell
- intracellular delivery by immunostaining (INS‐1E‐hIAPP cells): efficient intracellular delivery
- effect of peptide alone on ATP levels (INS‐1E β‐cells [2]): did not alter ATP levels
- effect of peptide alone on metabolic activity (INS‐1E β‐cells [3]; [5]): no significant effect
- effect on ATP levels in control (Ct) cells (INS‐1E‐Ct cells): did not alter ATP levels

Compound: CC[C@H](C)[C@H](NC(=O)CNC(=O)[C@@H]1CCCN1C(=O)[C@H](Cc1c[nH]c2ccccc12)NC(=O)[C@H](Cc1c[nH]c2ccccc12)NC(=O)[C@H](CCCCN)NC(=O)[C@H](Cc1c[nH]c2ccccc12)NC(C)=O)C(=O)N[C@@H](Cc1ccccc1)C(N)=O [QBP1] (Ac-WKWWPGIF-NH2)
- effect of peptide alone on metabolic activity (INS‐1E β‐cells [3]; [5]): no significant effect

Compound: CC(C)C[C@H](NC(=O)[C@H](CC(N)=O)NC(=O)[C@H](CC(N)=O)NC(=O)[C@H](CO)NC(=O)[C@H](CO)NC(=O)[C@H](CCCNC(=N)N)NC(=O)[C@@H](NC(=O)[C@H](CC(C)C)NC(=O)[C@H](Cc1ccccc1)NC(=O)[C@H](CC(N)=O)NC(=O)[C@H](C)NC(=O)[C@H](CC(C)C)NC(=O)[C@H](CCCNC(=N)N)NC(=O)[C@H](CCC(N)=O)NC(=O)[C@@H](NC(=O)[C@H](C)NC(=O)[C@@H]1CSSC[C@H](NC(=O)[C@@H](N)CCCCN)C(=O)N[C@@H](CC(N)=O)C(=O)N[C@@H]([C@@H](C)O)C(=O)N[C@@H](C)C(=O)N[C@@H]([C@@H](C)O)C(=O)N1)[C@@H](C)O)C(C)C)C(=O)NCC(=O)N1CCC[C@H]1C(=O)N[C@H](C(=O)N[C@@H](CC(C)C)C(=O)N1CCC[C@H]1C(=O)N1CCC[C@H]1C(=O)N[C@H](C(=O)N[C@@H](CC(N)=O)C(=O)N[C@H](C(=O)NCC(=O)N[C@@H](CO)C(=O)N[C@@H](CC(N)=O)C(=O)N[C@H](C(=O)N[C@@H](Cc1ccc(O)cc1)C(N)=O)[C@@H](C)O)C(C)C)[C@@H](C)O)C(C)C [rIAPP, reference compound]
- effect of peptide alone on metabolic activity (INS‐1E β‐cells [3]): did not affect metabolic activity

Compound: D‐ANFLVH
- molar excess relative to IAPP required to prevent toxicity (Rin1056A β‐cells): ten‐fold molar excess

Compound: FLPNF
- concentration required to reduce hIAPP‐induced cytotoxicity [4]: approximately 200 µM

Compound: epigallocatechin‐3‐gallate [EGCG]
- slowing of the rate of hIAPP oligomerization (NMR signal loss) (hIAPP): ~50%
